In patent US20120015925A1, “NOVEL BENZOTHIAZEPINE AND BENZOTHIEPINE COMPOUNDS” (ASAHI KASEI PHARMA CORPORATION, priority 2004, published 2012):

Biological target: T1, human IBAT (Homo sapiens, UniProt Q12908)
T1 sequence (Q12908 1-348): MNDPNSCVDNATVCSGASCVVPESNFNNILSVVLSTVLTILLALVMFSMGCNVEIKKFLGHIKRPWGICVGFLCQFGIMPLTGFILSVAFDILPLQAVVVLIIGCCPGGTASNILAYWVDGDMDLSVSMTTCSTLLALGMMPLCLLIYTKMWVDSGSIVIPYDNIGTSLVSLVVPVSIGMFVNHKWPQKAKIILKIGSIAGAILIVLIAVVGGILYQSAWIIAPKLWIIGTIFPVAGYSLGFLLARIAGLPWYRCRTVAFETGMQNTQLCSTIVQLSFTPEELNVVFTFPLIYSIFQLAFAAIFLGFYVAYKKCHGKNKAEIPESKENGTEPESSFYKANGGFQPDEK
Assay: In vitro assay using Cos 7 cells, transiently expressed human IBAT
Assay type: cell-based
Details: [3H]-taurocholate 8 μM uptake, 37° C., 60 minutes
Procedure: In the present Test Example, an in vitro assay of compounds using Cos 7 cells as to inhibitory activity on transiently expressed human IBAT or rat IBAT transporter was performed according to the method described in Am. J. Physiol., 274, G157-169.
That is, […] cells/well of Cos 7 cells were seeded in a 24-well plate, and after one day, the cells were transfected with 0.3 μg/well of cDNA of human IBAT or rat IBAT using FuGENE6 (supplied from Roche). After culturing for one day after the transfection, the cells were washed once with the assay buffer, i.e., Hanks buffer containing 25 mM glucose and 10 mM HEPES (pH 7.4). The assay buffer was then replaced with the assay buffer containing the test compound. [^3H]-Taurocholate at a final concentration of 8 μM was added thereto and incubated at 37° C. for 60 minutes so that [^3H]-taurocholate was taken into Cos 7 cells by the action of human IBAT or rat IBAT. The cells were washed twice with the assay buffer containing 1 mM taurocholate, and subsequently lysed with 0.2 M NaOH to stop the reaction. The cell lysate was added to 4 mL of liquid scintillation cocktail, which was then thoroughly vortexed. Then the radioactivity was measured using the liquid scintillation counter.

SMILES	IC50 [nM]
CCCCC1(CCCC)CS(=O)(=O)c2ccc(N(C)C)cc2C(c2cccc(NC(=S)Nc3ccc(C[n+]4ccc(C(c5ccccc5)c5ccccc5)cc4)cc3)c2)N1 (centres unmarked) [EXAMPLE 5410]	100
CCCCC1(CCCC)CS(=O)(=O)c2ccc(N(C)C)cc2C(c2cccc(NC(=S)Nc3ccc(C[n+]4ccc(C(C)(C)O)cc4)cc3)c2)N1 (centres unmarked) [EXAMPLE 5412]	37
CCCCC1(CCCC)CS(=O)(=O)c2ccc(N(C)C)cc2C(c2cccc(NC(=S)Nc3ccc(C[n+]4cccc(F)c4)cc3)c2)N1 (centres unmarked) [EXAMPLE 5416]	77
CCCCC1(CCCC)CS(=O)(=O)c2ccc(N(C)C)cc2C(c2cccc(NC(=S)Nc3ccc(C[n+]4cccc(Cl)c4)cc3)c2)N1 (centres unmarked) [EXAMPLE 5418]	69
CCCCC1(CCCC)CS(=O)(=O)c2ccc(N(C)C)cc2C(c2cccc(NC(=S)Nc3ccc(C[n+]4ccc(C5CCOCC5)cc4)cc3)c2)N1 (centres unmarked) [EXAMPLE 5419]	39
CCCCC1(CCCC)CS(=O)(=O)c2ccc(N(C)C)cc2C(c2cccc(NC(=S)Nc3ccc(C[n+]4ccccc4CCOC(C)C)cc3)c2)N1 (centres unmarked) [EXAMPLE 5420]	68
CCCCC1(CCCC)CS(=O)(=O)c2ccc(N(C)C)cc2C(c2cccc(NC(=S)Nc3ccc(C[N+]45CCC(CC4)CC5)cc3C)c2)N1 (centres unmarked) [EXAMPLE P317]	49
CCCCC1(CCCC)CS(=O)(=O)c2ccc(N(C)C)cc2C(c2cccc(NC(=S)Nc3ccc(C[N+]45CCC(CC4)CC5)c(F)c3)c2)N1 (centres unmarked) [EXAMPLE P319]	42
CCCCC1(CCCC)CS(=O)(=O)c2ccc(N(C)C)cc2C(c2cccc(NC(=S)Nc3ccc(C[N+]45CCC(CC4)CC5)cc3Cl)c2)N1 (centres unmarked) [EXAMPLE P320]	41
CCCCC1(CCCC)CS(=O)(=O)c2ccc(N(C)C)cc2C(c2cccc(NC(=S)Nc3ccc(C[N+]45CCC(CC4)CC5)c(Cl)c3)c2)N1 (centres unmarked) [EXAMPLE P321]	45
CCCCC1(CCCC)CS(=O)(=O)c2ccc(N(C)C)cc2C(c2cccc(NC(=S)Nc3ccc(C[N+]45CCC(CC4)CC5)cc3Br)c2)N1 (centres unmarked) [EXAMPLE P322]	62
CCCCC1(CCCC)CS(=O)(=O)c2ccc(N(C)C)cc2C(c2cccc(NC(=S)Nc3ccc(C[N+]45CCC(CC4)CC5)c(Br)c3)c2)N1 (centres unmarked) [EXAMPLE P323]	32
CCCCC1(CCCC)CS(=O)(=O)c2ccc(N(C)C)cc2C(c2cccc(NC(=S)Nc3ccc(C[N+]45CCC(CC4)CC5)c(C(F)(F)F)c3)c2)N1 (centres unmarked) [EXAMPLE P324]	37
CCCCC1(CCCC)CS(=O)(=O)c2ccc(N(C)C)cc2C(c2cccc(NC(=S)Nc3c(C)cc(C[N+]45CCC(CC4)CC5)cc3C)c2)N1 (centres unmarked) [EXAMPLE P326]	100
CCCCC1(CCCC)CS(=O)(=O)c2ccc(N(C)C)cc2C(c2cccc(NC(=S)Nc3ccc(C[N+](C)(C)Cc4ccccc4)cc3C)c2)N1 (centres unmarked) [EXAMPLE P328]	38
CCCCC1(CCCC)CS(=O)(=O)c2ccc(N(C)C)cc2C(c2cccc(NC(=S)Nc3ccc(C[N+](C)(C)Cc4ccccc4)cc3F)c2)N1 (centres unmarked) [EXAMPLE P330]	32
CCCCC1(CCCC)CS(=O)(=O)c2ccc(N(C)C)cc2C(c2cccc(NC(=S)Nc3ccc(C[N+](C)(C)Cc4ccccc4)c(F)c3)c2)N1 (centres unmarked) [EXAMPLE P331]	35
CCCCC1(CCCC)CS(=O)(=O)c2ccc(N(C)C)cc2C(c2cccc(NC(=S)Nc3ccc(C[N+](C)(C)Cc4ccccc4)cc3Cl)c2)N1 (centres unmarked) [EXAMPLE P332]	46
CCCCC1(CCCC)CS(=O)(=O)c2ccc(N(C)C)cc2C(c2cccc(NC(=S)Nc3ccc(C[N+](C)(C)Cc4ccccc4)c(Cl)c3)c2)N1 (centres unmarked) [EXAMPLE P333]	44
CCCCC1(CCCC)CS(=O)(=O)c2ccc(N(C)C)cc2C(c2cccc(NC(=S)Nc3ccc(C[N+](C)(C)Cc4ccccc4)cc3Br)c2)N1 (centres unmarked) [EXAMPLE P334]	37
CCCCC1(CCCC)CS(=O)(=O)c2ccc(N(C)C)cc2C(c2cccc(NC(=S)Nc3ccc(C[N+](C)(C)Cc4ccccc4)c(Br)c3)c2)N1 (centres unmarked) [EXAMPLE P335]	68
CCCCC1(CCCC)CS(=O)(=O)c2ccc(N(C)C)cc2C(c2cccc(NC(=S)Nc3c(C)cc(C[N+](C)(C)Cc4ccccc4)cc3C)c2)N1 (centres unmarked) [EXAMPLE P338]	47

SMILES	IC50 [nM]
CCCCC1(CCCC)CS(=O)(=O)c2ccc(N(C)C)cc2C(c2cccc(NC(=S)Nc3ccc(C[N+]45CCC(c6ccccc6)(CC4)CC5)c([N+](=O)[O-])c3)c2)N1 (centres unmarked) [EXAMPLE P349]	41
CCCCC1(CCCC)CS(=O)(=O)c2ccc(N(C)C)cc2C(c2cccc(NC(=S)Nc3c(C)cc(C[N+]45CCC(c6ccccc6)(CC4)CC5)cc3C)c2)N1 (centres unmarked) [EXAMPLE P350]	40
CCCCC1(CCCC)CS(=O)(=O)c2ccc(N(C)C)cc2C(c2cccc(NC(=S)Nc3ccc(C[n+]4ccc(C(C)(C)C)cc4)cc3C)c2)N1 (centres unmarked) [EXAMPLE P364]	48
CCCCC1(CCCC)CS(=O)(=O)c2ccc(N(C)C)cc2C(c2cccc(NC(=S)Nc3ccc(C[n+]4ccc(C(C)(C)C)cc4)c(F)c3)c2)N1 (centres unmarked) [EXAMPLE P367]	23
CCCCC1(CCCC)CS(=O)(=O)c2ccc(N(C)C)cc2C(c2cccc(NC(=S)Nc3ccc(C[n+]4ccc(C(C)(C)C)cc4)cc3Cl)c2)N1 (centres unmarked) [EXAMPLE P368]	29
CCCCC1(CCCC)CS(=O)(=O)c2ccc(N(C)C)cc2C(c2cccc(NC(=S)Nc3ccc(C[n+]4ccc(C(C)(C)C)cc4)c(Cl)c3)c2)N1 (centres unmarked) [EXAMPLE P369]	34
CCCCC1(CCCC)CS(=O)(=O)c2ccc(N(C)C)cc2C(c2cccc(NC(=S)Nc3ccc(C[n+]4ccc(C(C)(C)C)cc4)cc3Br)c2)N1 (centres unmarked) [EXAMPLE P370]	30
CCCCC1(CCCC)CS(=O)(=O)c2ccc(N(C)C)cc2C(c2cccc(NC(=S)Nc3ccc(C[n+]4ccc(C(C)(C)C)cc4)c(Br)c3)c2)N1 (centres unmarked) [EXAMPLE P371]	28
CCCCC1(CCCC)CS(=O)(=O)c2ccc(N(C)C)cc2C(c2cccc(NC(=S)Nc3ccc(C[n+]4ccc(C(C)(C)C)cc4)c(C(F)(F)F)c3)c2)N1 (centres unmarked) [EXAMPLE P372]	35
CCCCC1(CCCC)CS(=O)(=O)c2ccc(N(C)C)cc2C(c2cccc(NC(=S)Nc3ccc(C[n+]4ccc(C(C)(C)C)cc4)c([N+](=O)[O-])c3)c2)N1 (centres unmarked) [EXAMPLE P373]	97
CCCCC1(CCCC)CS(=O)(=O)c2ccc(N(C)C)cc2C(c2cccc(NC(=S)Nc3c(C)cc(C[n+]4ccc(C(C)(C)C)cc4)cc3C)c2)N1 (centres unmarked) [EXAMPLE P374]	33
CCCCC1(CCCC)CS(=O)(=O)c2ccc(N(C)C)cc2C(c2cccc(NC(=S)Nc3ccc(C[n+]4ccc(-c5ccccc5)cc4)cc3C)c2)N1 (centres unmarked) [EXAMPLE P376]	37
CCCCC1(CCCC)CS(=O)(=O)c2ccc(N(C)C)cc2C(c2cccc(NC(=S)Nc3ccc(C[n+]4ccc(-c5ccccc5)cc4)cc3F)c2)N1 (centres unmarked) [EXAMPLE P378]	34
CCCCC1(CCCC)CS(=O)(=O)c2ccc(N(C)C)cc2C(c2cccc(NC(=S)Nc3ccc(C[n+]4ccc(-c5ccccc5)cc4)c(F)c3)c2)N1 (centres unmarked) [EXAMPLE P379]	26
CCCCC1(CCCC)CS(=O)(=O)c2ccc(N(C)C)cc2C(c2cccc(NC(=S)Nc3ccc(C[n+]4ccc(-c5ccccc5)cc4)cc3Cl)c2)N1 (centres unmarked) [EXAMPLE P380]	18
CCCCC1(CCCC)CS(=O)(=O)c2ccc(N(C)C)cc2C(c2cccc(NC(=S)Nc3ccc(C[n+]4ccc(-c5ccccc5)cc4)c(Cl)c3)c2)N1 (centres unmarked) [EXAMPLE P381]	28
CCCCC1(CCCC)CS(=O)(=O)c2ccc(N(C)C)cc2C(c2cccc(NC(=S)Nc3ccc(C[n+]4ccc(-c5ccccc5)cc4)cc3Br)c2)N1 (centres unmarked) [EXAMPLE P382]	28
CCCCC1(CCCC)CS(=O)(=O)c2ccc(N(C)C)cc2C(c2cccc(NC(=S)Nc3ccc(C[n+]4ccc(-c5ccccc5)cc4)c(Br)c3)c2)N1 (centres unmarked) [EXAMPLE P383]	26
CCCCC1(CCCC)CS(=O)(=O)c2ccc(N(C)C)cc2C(c2cccc(NC(=S)Nc3ccc(C[n+]4ccc(-c5ccccc5)cc4)c(C(F)(F)F)c3)c2)N1 (centres unmarked) [EXAMPLE P384]	32
CCCCC1(CCCC)CS(=O)(=O)c2ccc(N(C)C)cc2C(c2cccc(NC(=S)Nc3ccc(C[n+]4ccc(-c5ccccc5)cc4)c([N+](=O)[O-])c3)c2)N1 (centres unmarked) [EXAMPLE P385]	56
CCCCC1(CCCC)CS(=O)(=O)c2ccc(N(C)C)cc2C(c2cccc(NC(=S)Nc3c(C)cc(C[n+]4ccc(-c5ccccc5)cc4)cc3C)c2)N1 (centres unmarked) [EXAMPLE P386]	60
CCCCC1(CCCC)CS(=O)(=O)c2ccc(N(C)C)cc2C(c2cccc(NC(=S)Nc3ccc(C[N+]45CCC(c6ccccc6)(CC4)CC5)cc3F)c2)N1 (centres unmarked) [Example P316, 1-(4-{3-[3-(3,3-dibutyl-7-dimethylamino-1,1-dioxo-2,3,4,5-tetrahydro-1,4-benzothiazepine-5-yl)phenyl]thioureido}-3-fluorobenzyl)-4-phenyl-1-azoniabicyclo[2.2.2]octane bromide]	28
